Measurements from the supplement of paper PMC11061612.

What was measured:
[1] = system: SCC-15 (Oral Cavity Carcinoma); experiment: combination Emax (second highest fraction inhibited in the dose matrix, 72 h); higher = more inhibition; extreme values may be limits of the assay
Summary of the method: (§1)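 Bliss excess equals the observed combination effect minus the expected value EA + EB − EA·EB, where EA and EB are the effects of each agent alone. Combination Emax is the second-highest inhibition within the matrix. Inhibition was scaled from CellTiter-Glo 2.0 luminescence, with 0 set by vehicle wells and 1 by blank wells, after 72 hours of two-drug dosing of cells plated in 1536-well plates.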

[2] = system: NEC8 (Other Solid Carcinomas); experiment: as above
Summary of the method: as §1

[3] = system: KMOE-2 (Acute Myeloid Leukemia); experiment: as above
Summary of the method: as §1

[4] = system: OE19 (Esophageal Adenocarcinoma); experiment: as above
Summary of the method: as §1

[5] = system: VA-ES-BJ (Other Solid Carcinomas); experiment: as above
Summary of the method: as §1

[6] = system: OSC-20 (Oral Cavity Carcinoma); experiment: as above
Summary of the method: as §1

[7] = system: NCI-H1915 (Non-Small Cell Lung Carcinoma); experiment: as above
Summary of the method: as §1

[8] = system: TE-1 (Esophageal Squamous Cell Carcinoma); experiment: as above
Summary of the method: as §1

[9] = system: PWR-1E (Non-Cancerous); experiment: as above
Summary of the method: as §1

[10] = system: SU8686 (Pancreatic Carcinoma); experiment: as above
Summary of the method: as §1

[11] = system: OVCAR-4 (Ovarian Carcinoma); experiment: as above
Summary of the method: as §1

[12] = system: HSC-4 (Oral Cavity Carcinoma); experiment: as above
Summary of the method: as §1

[13] = system: NUGC-3 (Gastric Carcinoma); experiment: as above
Summary of the method: as §1

[14] = system: NEC8 (Other Solid Carcinomas); experiment: Bliss excess, mean over the matrix (fraction); higher = more synergy
Summary of the method: as §1

[15] = system: KMOE-2 (Acute Myeloid Leukemia); experiment: as above
Summary of the method: as §1

[16] = system: HGC-27 (Gastric Carcinoma); experiment: as above
Summary of the method: as §1

[17] = system: OVCAR-4 (Ovarian Carcinoma); experiment: as above
Summary of the method: as §1

[18] = system: HSC-4 (Oral Cavity Carcinoma); experiment: as above
Summary of the method: as §1

[19] = system: C-4-I (Cervical Carcinoma); experiment: as above
Summary of the method: as §1

[20] = system: NUGC-3 (Gastric Carcinoma); experiment: as above
Summary of the method: as §1

## CN(CCO)CC[C@H](CSc1ccccc1)Nc1ccc(S(=O)(=O)NC(=O)c2ccc(N3CCC([C@@H](O)c4ccccc4-c4ccc(Cl)cc4)CC3)cc2)cc1S(=O)(=O)C(F)(F)F [AZD4320] + Cn1cnc2c(F)c(Nc3ccc(Br)cc3Cl)c(C(=O)NOCCO)cc21 [Selumetinib] (first compound max 1 µM, 7x7, partner max 3 µM)
[1]
  combination Emax: 0.548
[2]
  combination Emax: 0.341
[3]
  combination Emax: 1
[4]
  combination Emax: 0.314
[5]
  combination Emax: 0.203
[6]
  combination Emax: 0.321
[7]
  combination Emax: 0.583
[8]
  combination Emax: 0.554
[9]
  combination Emax: 0.601
[10]
  combination Emax: 0.228
[11]
  combination Emax: 0.381
[12]
  combination Emax: 0.797
[13]
  combination Emax: 0.762
[14]
  Bliss excess: 0.021
[15]
  Bliss excess: 0.0415
[16]
  Bliss excess: 0.0579
[17]
  Bliss excess: 0.0108
[18]
  Bliss excess: 0.0732
[19]
  Bliss excess: 0.135
[20]
  Bliss excess: 0.104

## Cc1cc2ncnn2cc1Nc1ncc2c(n1)n(C1CCOCC1)c(=O)n2C [AZD7648] + C=CCn1c(=O)c2cnc(Nc3ccc(N4CCN(C)CC4)cc3)nc2n1-c1cccc(C(C)(C)O)n1 [AZD1775] (first compound max 10 µM, partner max 1 µM)
[1]
  combination Emax: 0.439
[2]
  combination Emax: 0.123
[3]
  combination Emax: 0.924
[4]
  combination Emax: 0.465
[5]
  combination Emax: 0.453
[6]
  combination Emax: 0.354
[7]
  combination Emax: 0.553
[8]
  combination Emax: 0.621
[9]
  combination Emax: 0.562
[10]
  combination Emax: 0.224
[11]
  combination Emax: 0.607
[12]
  combination Emax: 0.41
[13]
  combination Emax: 0.587
[14]
  Bliss excess: 0.0004
[15]
  Bliss excess: -0.0329
[16]
  Bliss excess: -0.012
[17]
  Bliss excess: -0.0108
[18]
  Bliss excess: -0.0082
[19]
  Bliss excess: -0.015
[20]
  Bliss excess: 0.0165

## Cc1cc2ncnn2cc1Nc1ncc2c(n1)n(C1CCOCC1)c(=O)n2C [AZD7648] + CCN(CCO)CCCOc1ccc2c(Nc3cc(CC(=O)Nc4cccc(F)c4)[nH]n3)ncnc2c1 [AZD2811] (first compound max 10 µM, 7x7, partner max 1 µM)
[1]
  combination Emax: 0.458
[2]
  combination Emax: 0.0355
[3]
  combination Emax: 0.297
[4]
  combination Emax: 0.774
[5]
  combination Emax: 0.346
[6]
  combination Emax: 0.454
[7]
  combination Emax: 0.252
[8]
  combination Emax: 0.246
[9]
  combination Emax: 0.588
[10]
  combination Emax: 0.139
[11]
  combination Emax: 0.285
[12]
  combination Emax: 0.188
[13]
  combination Emax: 0.418
[14]
  Bliss excess: -0.0082
[15]
  Bliss excess: 0.0325
[16]
  Bliss excess: -0.0685
[17]
  Bliss excess: -0.0035
[18]
  Bliss excess: 0.0036
[19]
  Bliss excess: 0.048
[20]
  Bliss excess: -0.0046

## Cc1cc2ncnn2cc1Nc1ncc2c(n1)n(C1CCOCC1)c(=O)n2C [AZD7648] + CN(C)CCCOc1ccc(-c2ccc3ncc4c(c3c2)n(C2CCOCC2)c(=O)n4C)cn1 [AZD0156] (first compound max 10 µM, 7x7, partner max 1 µM)
[1]
  combination Emax: 0.292
[2]
  combination Emax: 0.0719
[3]
  combination Emax: 0.213
[4]
  combination Emax: 0.363
[5]
  combination Emax: 0.225
[6]
  combination Emax: 0.224
[7]
  combination Emax: 0.294
[8]
  combination Emax: 0.19
[9]
  combination Emax: 0.363
[10]
  combination Emax: 0.143
[11]
  combination Emax: 0.185
[12]
  combination Emax: 0.112
[13]
  combination Emax: 0.296
[14]
  Bliss excess: -0.0007
[15]
  Bliss excess: 0.0226
[16]
  Bliss excess: 0.0101
[17]
  Bliss excess: -0.0126
[18]
  Bliss excess: -0.0154
[19]
  Bliss excess: 0.0099
[20]
  Bliss excess: -0.0262

## Cc1cc2ncnn2cc1Nc1ncc2c(n1)n(C1CCOCC1)c(=O)n2C [AZD7648] + C[C@@H]1COCCN1C2=NC(=NC(=C2)C3(CC3)[S@](=N)(=O)C)C4=C5C=CNC5=NC=C4 [AZD6738] (first compound max 10 µM, 7x7, partner max 10 µM)
[1]
  combination Emax: 0.565
[2]
  combination Emax: 0.7
[3]
  combination Emax: 0.586
[4]
  combination Emax: 0.813
[5]
  combination Emax: 0.73
[6]
  combination Emax: 0.41
[7]
  combination Emax: 0.364
[8]
  combination Emax: 0.414
[9]
  combination Emax: 0.769
[10]
  combination Emax: 0.232
[11]
  combination Emax: 0.737
[12]
  combination Emax: 0.584
[13]
  combination Emax: 0.665
[14]
  Bliss excess: 0.0119
[15]
  Bliss excess: 0.0035
[16]
  Bliss excess: -0.0265
[17]
  Bliss excess: -0.0053
[18]
  Bliss excess: -0.0165
[19]
  Bliss excess: 0.0255
[20]
  Bliss excess: -0.0657

## Cc1cc2ncnn2cc1Nc1ncc2c(n1)n(C1CCOCC1)c(=O)n2C [AZD7648] + O=C(c1cc(Cc2n[nH]c(=O)c3ccccc23)ccc1F)N1CCN(C(=O)C2CC2)CC1 [Olaparib] (first compound max 10 µM, 7x7, partner max 10 µM)
[1]
  combination Emax: 0.14
[2]
  combination Emax: 0.259
[3]
  combination Emax: 0.176
[4]
  combination Emax: 0.289
[5]
  combination Emax: 0.18
[6]
  combination Emax: 0.265
[7]
  combination Emax: 0.372
[8]
  combination Emax: 0.15
[9]
  combination Emax: 0.28
[10]
  combination Emax: 0.0508
[11]
  combination Emax: 0.133
[12]
  combination Emax: 0.26
[13]
  combination Emax: 0.349
[14]
  Bliss excess: 0.0327
[15]
  Bliss excess: -0.0066
[16]
  Bliss excess: -0.0092
[17]
  Bliss excess: -0.0214
[18]
  Bliss excess: -0.0448
[19]
  Bliss excess: 0.005
[20]
  Bliss excess: -0.0175
